Experiments:
G2019S LRRK2 = G2019S LRRK2 (Homo sapiens, UniProt Q5S007, G2019S); assay: In vitro kinase assay: LRRK2-mediated phosphorylation of 4E-BP1; type: biochemical
Protocol: The GST-4E-BP1 expressing vector was generated using the Invitrogen Gateway LR Clonase System. Briefly, an entry clone containing the 4E-BP1 sequence was reacted with the destination vector, pDEST-15 in the presence of the LR clonase mixture. After the clonase reaction, the mixture was transformed into One Shot BL21 chemically competent E. coli. The transformed cells were grown on ampicillin containing LB agar plate for one day at 37° C. Colonies containing GST-4E-BP1 were isolated. For protein induction, 100 μM IPTG was added to 100 mL culture and incubated for 3 h at 30° C. After IPTG incubation, cells were collected by centrifugation at 3,000×g for 15 min. The pellet was lysed with sonication in the presence of lysis butter containing 0.5% TX-100, 50 mM Tris-HCl (pH 8.0), 100 mM NaCl, 0.5 mM EGTA, 5 mM MgCl2, 2 mM DTT, and complete protease inhibitors. The lysate was centrifugated at 15,000×g for 15 min and the supernatant was incubated with GSH-sepharose beads for 2 h at 4° C. After incubation, the beads were washed with PBS containing an additional 150 mM NaCl and 0.1% TX-100 three times. The protein was eluted with elution buffer containing Hepes (pH 8.0), 150 mM NaCl, 30% glycerol, and 30 mM glutathione. The eluted proteins were stored at −80° C.
The in vitro kinase assay was performed as previously described. West, A. B. et al. Parkinson's disease-associated mutations in leucine-rich repeat kinase 2 augment kinase activity. Proc Natl Acad Sci USA 102, 16842-16847 (2005). Recombinant LRRK2 and MBP or CST-4E-BP1 were combined before the kinase reaction. LRRK2 autophosphorylation is LRRK2 itself phosphorylation and MBP or GST-4E-BP1 phosphorylation is induced by LRRK2. After the kinase reaction, combined LRRK2 and MBP or GST-4E-BP1 were loaded on SDSPAGE and phosphorylated LRRK2 and MBP or GST-4E-BP1 could be detected separately an a single gel. Recombinant proteins and inhibitors were incubated at 30° C. in kinase assay buffer containing 20 mM Hepes (pH 7.4), 5 mM EGTA, and 20 mM β-glycerol phosphate. 0.5 μg MBP (Upstate) or 0.5 μg GST-4B-BP1, 50 μM ATP (Sigma), 20 mM MgCl2, and 1 μCi [γ-32P] ATP (PerkinElmer) was added after 5 min. The reaction was performed at 30° C. to reduce non-specific 32P incorporation for 15 min and terminated by the addition of 5×Laemmili sample buffer. The reactions were then heated at 70° C. for 10 min and resolved by 12% SDS-PAGE. Gels were stained by coomassie brilliant blue after fixation with 10% acetic acid and 40% methanol and then exposed to a Phosphoimager. Data were analyzed by ImageQuant 6.0 software.

[1] = tested on: C. elegans expressing LRRK2 G2019S in DA neurons; assay: Transgenic nematode model of LRRK2 G2019S-induced DA neurodegeneration; type: in vivo, Caenorhabditis elegans; conditions: for rescue of DA neurodegeneration: 7 day-old worms; for worms with wild-type DA neurons (4 CEP and 2 ADE): 7-day-old worms, n=90, 48% with 1% DMSO
Protocol: Nematodes were maintained following the standard procedures. Brenner, S., 771 GENETICS 71-94 (1974). Isogenic worm strains expressing LRRK2, G2019S, UAXX [baInlX; Pdat-1::LRRK2 G2019S, Pdat-1::gfp] were generated via microinjection, integrated into the genome and out-crossed three times. Age-synchronized worms were obtained by treating gravid adults with 2% sodium hypochlorite and 0.5M NaOH to isolate embryos. Lewis, J. A., 48 METHODS CELL BIOL. 3-29 (1995). These embryos were treated with indicated concentrations of LRRK2 kinase inhibitors, which were dissolved in 1% DSMO, for 24 h. at 20° C. with gentle shaking. The worms were then washed and transferred into NGM plates seeded with OP50 bacteria, and incubated as 20° C. The six anterior DA neurons (4 CEP and 2 ADE neurons) of 30 animals/trial were examined for neurodegeneration when the animals were 7 days old. A total of 90 animals for each treatment were analyzed (3 trials of 30 animals/trial). […] See Hamamichi et al., 105(2) PROC. NATL. ACAD. SCI. USA 728-33 (2008); and Cao et al, 25 J. NEUROSCI. 3801-12 (2005). For each trial, 30 worms were transferred into a 2% agarose pad, immobilized with 2 mM levamisole, and analyzed using Nikon Eclipse E800 epifluorescence microscope equipped with Endow GFP HYQ filter cube (Chrom Technology, Rockingham, Vt.). Images were captured with a Cool Snap CCD camera (Photometrics, Tucson, Ariz.) driven by MetaMorph software (Universal Imaging, West Chester, Pa.).
To determine whether the LRRK2 kinase inhibitors protect against LRRK2-induced neurodegeneration in vivo, the LRRK2 kinase inhibitors were tested in the C. elegans model of LRRK2 G2019S-induced neurodegeneration described above. The DA transporter (dat-1) was used to direct expression of LRRK2 G2019S in DA neurons.

[2] = tested on: HSV-G2019S LRRK2 dopaminergic neurotoxicity; assay: HSV amplicon-based mouse model of LRRK2 dopaminergic neurotoxicity; type: in vivo; conditions: for loss of tyrosine hydroxylase-positive neurons induced by HSV-G2019S LRRK2: 2.5 mg per kg i.p. twice daily, 3 weeks, versus DMSO- and indirubin-injected controls
[3] = from literature; cited from earlier work

Sequence of G2019S LRRK2 (Q5S007 whole entry G2019S): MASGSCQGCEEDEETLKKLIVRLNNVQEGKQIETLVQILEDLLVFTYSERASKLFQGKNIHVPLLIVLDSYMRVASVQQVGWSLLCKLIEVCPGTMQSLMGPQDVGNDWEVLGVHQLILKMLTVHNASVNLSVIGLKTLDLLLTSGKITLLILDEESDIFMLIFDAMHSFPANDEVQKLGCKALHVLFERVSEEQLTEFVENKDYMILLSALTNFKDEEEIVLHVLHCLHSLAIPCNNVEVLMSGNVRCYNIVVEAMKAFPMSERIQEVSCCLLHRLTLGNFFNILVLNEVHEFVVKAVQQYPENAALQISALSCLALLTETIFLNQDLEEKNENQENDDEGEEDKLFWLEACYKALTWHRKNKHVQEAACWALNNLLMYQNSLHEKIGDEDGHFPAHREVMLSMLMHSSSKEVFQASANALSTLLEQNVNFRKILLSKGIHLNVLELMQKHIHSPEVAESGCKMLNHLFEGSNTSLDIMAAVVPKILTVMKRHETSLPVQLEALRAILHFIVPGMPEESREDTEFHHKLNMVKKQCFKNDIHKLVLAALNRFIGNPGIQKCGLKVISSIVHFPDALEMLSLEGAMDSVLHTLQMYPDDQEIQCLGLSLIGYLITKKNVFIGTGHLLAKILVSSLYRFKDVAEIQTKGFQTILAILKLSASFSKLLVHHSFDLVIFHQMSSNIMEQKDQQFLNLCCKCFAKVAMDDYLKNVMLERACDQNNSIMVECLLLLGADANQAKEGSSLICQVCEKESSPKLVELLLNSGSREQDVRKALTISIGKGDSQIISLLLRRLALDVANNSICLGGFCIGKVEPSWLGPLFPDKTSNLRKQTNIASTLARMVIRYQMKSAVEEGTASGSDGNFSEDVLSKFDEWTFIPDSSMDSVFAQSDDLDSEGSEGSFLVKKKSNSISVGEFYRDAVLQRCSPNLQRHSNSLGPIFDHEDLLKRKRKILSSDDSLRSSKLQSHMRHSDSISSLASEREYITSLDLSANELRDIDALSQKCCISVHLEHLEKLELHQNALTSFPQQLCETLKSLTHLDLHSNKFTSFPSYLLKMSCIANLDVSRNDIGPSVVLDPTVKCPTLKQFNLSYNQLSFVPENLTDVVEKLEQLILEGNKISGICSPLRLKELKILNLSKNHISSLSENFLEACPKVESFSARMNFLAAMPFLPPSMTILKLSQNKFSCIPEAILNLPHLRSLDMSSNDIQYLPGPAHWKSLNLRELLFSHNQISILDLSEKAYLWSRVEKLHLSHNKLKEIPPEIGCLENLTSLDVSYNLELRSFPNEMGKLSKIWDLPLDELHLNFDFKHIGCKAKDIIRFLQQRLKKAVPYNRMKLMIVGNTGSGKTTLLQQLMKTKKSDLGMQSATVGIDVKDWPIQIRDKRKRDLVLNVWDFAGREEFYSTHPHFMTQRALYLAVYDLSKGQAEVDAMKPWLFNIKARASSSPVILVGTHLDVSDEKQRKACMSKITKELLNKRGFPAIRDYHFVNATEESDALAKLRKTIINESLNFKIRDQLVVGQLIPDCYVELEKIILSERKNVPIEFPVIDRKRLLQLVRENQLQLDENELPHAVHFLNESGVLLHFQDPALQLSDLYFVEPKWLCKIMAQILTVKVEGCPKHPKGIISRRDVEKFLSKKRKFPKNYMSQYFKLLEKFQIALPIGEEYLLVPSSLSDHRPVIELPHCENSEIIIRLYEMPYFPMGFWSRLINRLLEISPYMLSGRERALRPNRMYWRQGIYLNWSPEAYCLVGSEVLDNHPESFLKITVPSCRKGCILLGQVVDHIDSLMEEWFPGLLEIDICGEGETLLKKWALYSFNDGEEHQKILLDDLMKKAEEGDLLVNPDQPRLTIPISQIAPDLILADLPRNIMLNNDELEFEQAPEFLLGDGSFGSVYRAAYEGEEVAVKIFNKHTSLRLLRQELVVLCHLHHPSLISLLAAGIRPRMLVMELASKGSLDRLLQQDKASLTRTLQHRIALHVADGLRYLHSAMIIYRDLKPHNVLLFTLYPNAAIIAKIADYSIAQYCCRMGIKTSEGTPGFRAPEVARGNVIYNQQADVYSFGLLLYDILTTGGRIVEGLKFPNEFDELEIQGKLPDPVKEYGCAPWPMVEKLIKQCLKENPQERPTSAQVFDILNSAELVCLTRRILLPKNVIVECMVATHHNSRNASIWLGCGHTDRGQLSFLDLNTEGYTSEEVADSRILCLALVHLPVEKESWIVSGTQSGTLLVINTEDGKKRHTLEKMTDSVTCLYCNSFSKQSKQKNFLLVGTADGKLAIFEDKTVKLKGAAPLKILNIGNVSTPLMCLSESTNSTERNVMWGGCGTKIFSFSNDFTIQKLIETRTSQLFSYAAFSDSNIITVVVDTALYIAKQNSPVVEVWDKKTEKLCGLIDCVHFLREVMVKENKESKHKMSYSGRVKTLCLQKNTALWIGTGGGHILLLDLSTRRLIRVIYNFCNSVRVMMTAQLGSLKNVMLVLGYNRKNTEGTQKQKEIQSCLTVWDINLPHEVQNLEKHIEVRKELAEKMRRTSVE

SMILES	LRRK2-mediated phosphorylation of 4E-BP1 (G2019S LRRK2)	rescue of DA neurodegeneration [1]	worms with wild-type DA neurons (4 CEP and 2 ADE) ([1]; 10 μM)	worms with wild-type DA neurons (4 CEP and 2 ADE) ([1]; 25 μM)	loss of tyrosine hydroxylase-positive neurons induced by HSV-G2019S LRRK2 [2]	increase in ILB4-positive cells in striatum and substantia nigra pars compacta ([2]; G2019S LRRK2 mice, 2.5 mg/kg i.p. twice daily)	reduction in the density of tyrosine hydroxylase-positive fibers (striatum) ([2]; HSV-LRRK2 G2019S mice, 2.5 mg/kg i.p. twice daily)	crossing of the blood-brain barrier [3]
Cc1ccc(NC(=O)c2cccc(N(C)C)c2)cc1NC(=O)c1ccc(O)cc1 [Inhibitor 53, ZM336372]	did not inhibit	failed to rescue						
O=C1Nc2ccc(I)cc2/C1=C/c1cc(Br)c(O)c(Br)c1 [Inhibitor 56, GW5074]	inhibited	protect worms from neurodegeneration	66%	67%	attenuated	prevented	rescued	known to cross the blood-brain barrier
O=C1Nc2ccccc2/C1=C1/Nc2ccccc2/C1=N\O [Inhibitor 70, Indirubin-3-monooxine]	inhibited				attenuated			known to cross the blood-brain barrier

From patent US20150018301A1, “LRRK-2-Mediated Neuronal Toxicity” (THE JOHNS HOPKINS UNIVERSITY, priority 2009, published 2015)
